{"source": "patent US12318390B2", "about": "“Pharmaceutical composition for oral administration comprising aminopyrimidine derivative or its salt” (YUHAN CORPORATION, priority 2018, dated 2025)", "key": {"[1]": {"test": "Comparative pharmacokinetic test in normal rats", "type": "in vivo, rats (SD rat)", "text": "(§1) Specifically, in the normal rats and the esomeprazole-treated rats, maximum blood concentrations (Cmax) and areas under the blood concentration curve (AUClast) were compared with each other, respectively, to evaluate the absorption of drugs in animals."}, "[2]": {"test": "Comparative pharmacokinetic test in esomeprazole-treated rats", "type": "in vivo, rats (SD rat)", "details": "for area under the blood concentration curve reduced compared with the normal rats / maximum blood concentration reduced compared with the normal rats: esomeprazole-treated rats vs normal rats", "text": "as §1\nThe results (the maximum blood concentration and the area under the blood concentration curve) of the comparative pharmacokinetic test obtained therefrom were shown in Table 7 and FIGS. 5 and 6."}, "Solubility test": {"test": "Solubility test", "type": "physicochemical", "details": "thermodynamic from solid, 37° C.", "experimental": "In addition, 100 mg of Lazertinib free-base (prepared in the same manner as the method described in WO 2016/060443) was tested under the same conditions."}, "[3]": {"test": "Pharmacokinetic test for Lazertinib mesylate and free-base in beagle dogs", "type": "in vivo", "details": "beagle dog", "text": "The results (the maximum blood concentration and the area under the blood concentration curve) of the comparative pharmacokinetic test obtained therefrom were shown in Table 8 and FIG. 7."}, "[4]": {"test": "Stability test under stressed condition", "type": "physicochemical", "details": "for PXRD pattern: stressed condition 60 ± 2° C., 75 ± 5% RH; for Purity: HPLC"}, "[5]": {"test": "Stability test under accelerated condition", "type": "physicochemical", "details": "for Purity: HPLC"}, "[6]": {"details": "esomeprazole-treated rats, oral 30 mg/kg"}, "[7]": {"details": "stressed condition, Start to 4 weeks"}, "[8]": {"details": "Normal rat, oral 30 mg/5 mL/kg in 0.5% methyl cellulose"}, "[9]": {"details": "Esomeprazole-treated rat (5 mg/kg i.v. for 3 days), oral 30 mg/5 mL/kg"}, "[10]": {"details": "accelerated condition, 3 months"}, "[11]": {"details": "accelerated condition, 6 months"}, "[12]": {"details": "accelerated condition, Start to 6 months"}, "[13]": {"details": "oral 5 mg/2 mL/kg in 0.5% methyl cellulose"}}}
{"compound": "C=CC(=O)Nc1cc(Nc2nccc(-n3cc(CN(C)C)c(-c4ccccc4)n3)n2)c(OC)cc1N1CCOCC1", "note": "[Lazertinib free-base, N-(5-(4-(4-((dimethylamino)methyl)-3-phenyl-1H-pyrazol-1-yl)pirimidine-2-ylamino)-4-methoxy-2-morpholinophenyl)acrylamide]", "values": [{"measurement": "AUC(0-t)", "setting": "[1]; male, SD, blood, 30 mg/kg, Normal rat, oral 30 mg/5 mL/kg in 0.5% methyl cellulose, read-out: Area under the blood concentration curve (AUClast)", "result": 7290, "unit": "ng·h/mL"}, {"measurement": "Cmax", "setting": "[1]; male, SD, blood, 30 mg/kg, Normal rat, oral 30 mg/5 mL/kg in 0.5% methyl cellulose, read-out: Maximum blood concentration (Cmax)", "result": 726, "unit": "ng/mL"}, {"measurement": "area under the blood concentration curve lower than Lazertinib mesylate", "setting": "[1]; normal rats, oral 30 mg/kg", "result": 10.4, "unit": "%"}, {"measurement": "maximum blood concentration lower than Lazertinib mesylate", "setting": "[1]; normal rats, oral 30 mg/kg", "result": 11.0, "unit": "%"}, {"measurement": "area under the blood concentration curve reduced compared with the normal rats", "setting": "[2]", "result": 63.8, "unit": "%"}, {"measurement": "maximum blood concentration reduced compared with the normal rats", "setting": "[2]", "result": 69.3, "unit": "%"}, {"measurement": "area under the blood concentration curve lower than Lazertinib mesylate", "setting": "[2]; [6]", "result": 49.4, "unit": "%"}, {"measurement": "maximum blood concentration lower than Lazertinib mesylate", "setting": "[2]; [6]", "result": 47.8, "unit": "%"}, {"measurement": "AUC(0-t)", "setting": "[2]; male, SD, blood, Esomeprazole-treated rat (i.v. for 3 days), oral 30 mg/5 mL/kg, read-out: Area under the blood concentration curve (AUClast)", "result": 2640, "unit": "ng·h/mL"}, {"measurement": "Cmax", "setting": "[2]; male, SD, blood, Esomeprazole-treated rat (i.v. for 3 days), oral 30 mg/5 mL/kg, read-out: Maximum blood concentration (Cmax)", "result": 223, "unit": "ng/mL"}, {"measurement": "solubility at 12 h", "setting": "Solubility test; fassgf or other biorelevant, Artificial gastric juice (FaSSGF)", "result": 1500, "unit": "µg/mL"}, {"measurement": "solubility at 12 h", "setting": "Solubility test; organic solvent or mixture, Ethanol", "result": 599, "unit": "µg/mL"}, {"measurement": "solubility at 12 h", "setting": "Solubility test; pH 1.2 buffer solution, simulated gastric fluid, pH 1.2 buffer", "result": 4400, "unit": "µg/mL"}, {"measurement": "solubility at 12 h", "setting": "Solubility test; pH 2.0 buffer solution, simulated gastric fluid, pH 2.0 buffer", "result": 3700, "unit": "µg/mL"}, {"measurement": "solubility at 12 h", "setting": "Solubility test; pH 3.0 buffer solution, aqueous buffer, pH 3.0 buffer", "result": 1900, "unit": "µg/mL"}, {"measurement": "solubility at 12 h", "setting": "Solubility test; pH 4.0 buffer solution, aqueous buffer, pH 4.0 buffer", "result": 1000, "unit": "µg/mL"}, {"measurement": "solubility at 12 h", "setting": "Solubility test; pH 5.0 buffer solution, aqueous buffer, pH 5.0 buffer", "result": 10, "unit": "µg/mL"}, {"measurement": "solubility at 12 h", "setting": "Solubility test; pH 6.0 buffer solution, aqueous buffer, pH 6.0 buffer", "result": 3, "unit": "µg/mL"}, {"measurement": "solubility at 12 h", "setting": "Solubility test; pH 7.0 buffer solution, aqueous buffer, pH 7.0 buffer", "result": 1, "unit": "µg/mL"}, {"measurement": "solubility at 12 h", "setting": "Solubility test; Artificial intestinal fluid (FaSSIF)", "result": 27, "unit": "µg/mL"}, {"measurement": "solubility at 12 h", "setting": "Solubility test; water", "result": 1, "unit": "µg/mL"}, {"measurement": "area under the blood concentration curve lower than Lazertinib mesylate", "setting": "[3]; oral 5 mg/kg", "result": 50.4, "unit": "%"}, {"measurement": "maximum blood concentration lower than Lazertinib mesylate", "setting": "[3]; oral 5 mg/kg", "result": 40.1, "unit": "%"}, {"measurement": "AUC(0-t)", "setting": "[3]; male, blood, 5 mg/kg, oral 5 mg/2 mL/kg in 0.5% methyl cellulose, read-out: Area under the blood concentration curve (AUClast)", "result": 379, "unit": "ng·h/mL"}, {"measurement": "Cmax", "setting": "[3]; male, blood, 5 mg/kg, oral 5 mg/2 mL/kg in 0.5% methyl cellulose, read-out: Maximum blood concentration (Cmax)", "result": 80.7, "unit": "ng/mL"}]}
{"compound": "mesylic acid salt of N-(5-(4-(4-((dimethylamino)methyl)-3-phenyl-1H-pyrazol-1-yl)pirimidine-2-ylamino)-4-methoxy-2-morpholinophenyl)acrylamide [Lazertinib mesylate]", "values": [{"measurement": "PXRD pattern", "setting": "[4]; 2 weeks", "result": "Same"}, {"measurement": "PXRD pattern", "setting": "[4]; 4 weeks", "result": "Same"}, {"measurement": "Appearance (color)", "setting": "[4]; stressed condition, 2 weeks", "result": "White"}, {"measurement": "Content", "setting": "[4]; stressed condition, 2 weeks", "result": 97.7, "unit": "%"}, {"measurement": "DSC Onset", "setting": "[4]; stressed condition, 2 weeks", "result": 214, "unit": "°C"}, {"measurement": "Water Content", "setting": "[4]; stressed condition, 2 weeks", "result": 2.71, "unit": "%"}, {"measurement": "Purity", "setting": "[4]; stressed condition, 2 weeks", "result": 99.3, "unit": "%"}, {"measurement": "Appearance (color)", "setting": "[4]; stressed condition, 4 weeks", "result": "White"}, {"measurement": "Content", "setting": "[4]; stressed condition, 4 weeks", "result": 98.9, "unit": "%"}, {"measurement": "DSC Onset", "setting": "[4]; stressed condition, 4 weeks", "result": 214, "unit": "°C"}, {"measurement": "Water Content", "setting": "[4]; stressed condition, 4 weeks", "result": 2.70, "unit": "%"}, {"measurement": "Purity", "setting": "[4]; stressed condition, 4 weeks", "result": 99.3, "unit": "%"}, {"measurement": "Appearance (color)", "setting": "[4]; stressed condition, Start", "result": "White"}, {"measurement": "Content", "setting": "[4]; stressed condition, Start", "result": 98.8, "unit": "%"}, {"measurement": "DSC Onset", "setting": "[4]; stressed condition, Start", "result": 214, "unit": "°C"}, {"measurement": "Water Content", "setting": "[4]; stressed condition, Start", "result": 2.48, "unit": "%"}, {"measurement": "Content Variation", "setting": "[4]; [7]", "result": "+0.1%"}, {"measurement": "Purity Variation", "setting": "[4]; [7]", "result": "+0.1%"}, {"measurement": "Water Content Variation", "setting": "[4]; [7]", "result": "+0.22%"}, {"measurement": "Purity", "setting": "[4]; stressed condition, Start", "result": 99.2, "unit": "%"}, {"measurement": "Area under the blood concentration curve (AUClast)", "setting": "[1]; [8]", "result": 8139.0, "unit": "ng·h/mL"}, {"measurement": "Maximum blood concentration (Cmax)", "setting": "[1]; [8]", "result": 815.6, "unit": "ng/mL"}, {"measurement": "Area under the blood concentration curve (AUClast)", "setting": "[2]; [9]", "result": 5210.9, "unit": "ng·h/mL"}, {"measurement": "Maximum blood concentration (Cmax)", "setting": "[2]; [9]", "result": 427.5, "unit": "ng/mL"}, {"measurement": "area under the blood concentration curve reduced compared with the normal rats", "setting": "[2]", "result": 36.0, "unit": "%"}, {"measurement": "maximum blood concentration reduced compared with the normal rats", "setting": "[2]", "result": 47.6, "unit": "%"}, {"measurement": "PXRD pattern", "setting": "[5]; accelerated condition 40 ± 2° C., 75 ± 5% RH, 1 month", "result": "Same"}, {"measurement": "Appearance (color)", "setting": "[5]; accelerated condition, 1 month", "result": "White"}, {"measurement": "Content", "setting": "[5]; accelerated condition, 1 month", "result": 98.9, "unit": "%"}, {"measurement": "DSC Onset", "setting": "[5]; accelerated condition, 1 month", "result": 214, "unit": "°C"}, {"measurement": "Water Content", "setting": "[5]; accelerated condition, 1 month", "result": 2.73, "unit": "%"}, {"measurement": "Purity", "setting": "[5]; accelerated condition, 1 month", "result": 99.3, "unit": "%"}, {"measurement": "Appearance (color)", "setting": "[5]; [10]", "result": "White"}, {"measurement": "Content", "setting": "[5]; [10]", "result": 98.9, "unit": "%"}, {"measurement": "DSC Onset", "setting": "[5]; [10]", "result": 214, "unit": "°C"}, {"measurement": "PXRD pattern", "setting": "[5]; [10]", "result": "Same"}, {"measurement": "Water Content", "setting": "[5]; [10]", "result": 3.19, "unit": "%"}, {"measurement": "Purity", "setting": "[5]; [10]", "result": 99.3, "unit": "%"}, {"measurement": "Appearance (color)", "setting": "[5]; [11]", "result": "White"}, {"measurement": "Content", "setting": "[5]; [11]", "result": 99.1, "unit": "%"}, {"measurement": "DSC Onset", "setting": "[5]; [11]", "result": 214, "unit": "°C"}, {"measurement": "PXRD pattern", "setting": "[5]; [11]", "result": "Same"}, {"measurement": "Water Content", "setting": "[5]; [11]", "result": 3.01, "unit": "%"}, {"measurement": "Purity", "setting": "[5]; [11]", "result": 99.3, "unit": "%"}, {"measurement": "Appearance (color)", "setting": "[5]; accelerated condition, Start", "result": "White"}, {"measurement": "Content", "setting": "[5]; accelerated condition, Start", "result": 98.8, "unit": "%"}, {"measurement": "DSC Onset", "setting": "[5]; accelerated condition, Start", "result": 214, "unit": "°C"}, {"measurement": "Water Content", "setting": "[5]; accelerated condition, Start", "result": 2.48, "unit": "%"}, {"measurement": "Content Variation", "setting": "[5]; [12]", "result": "+0.3%"}, {"measurement": "Purity Variation", "setting": "[5]; [12]", "result": "+0.1%"}, {"measurement": "Water Content Variation", "setting": "[5]; [12]", "result": "+0.53%"}, {"measurement": "Purity", "setting": "[5]; accelerated condition, Start", "result": 99.2, "unit": "%"}, {"measurement": "Area under the blood concentration curve (AUClast)", "setting": "[3]; [13]", "result": 811.5, "unit": "ng·h/mL"}, {"measurement": "Maximum blood concentration (Cmax)", "setting": "[3]; [13]", "result": 134.7, "unit": "ng/mL"}]}
